Results as given in paper PMC9959501, “Critical Analysis and Optimization of Stoichiometric Ratio of Drug-Coformer on Cocrystal Design: Molecular Docking, In Vitro and In Vivo Assessment” (Pharmaceuticals, 2023).
≈ marks a conversion by molar mass, not a printed value.

Key:
[1] = Pharmacokinetic study in rats; assay type: in vivo; conditions: male, Wistar, po, 1 mg/kg telmisartan equivalent in 0.5% w/v sodium carboxymethylcellulose, mean ± SD, n = 6
Experimental: In vivo study protocol was approved by the Institutional Animal Ethical Committee, Dr. B. C. Roy College of Pharmacy & AHS., Durgapur, West Bengal, India (Approval No: BCRCP/IAEC/8/2019). The pharmacokinetic study was performed using male Wistar rats (180–200 g). The animals were allowed to be acclimatized for a period of 1 week in our laboratory environment prior to the experiment and had free access to water and food.
The animals were divided into two groups. Group 1 (6 animals) received pure telmisartan (1 mg/kg) with 0.5% w/v sodium carboxymethylcellulose, and Group 2 (6 animals) received optimized cocrystals (equivalent to 1 mg/kg pure telmisartan) with 0.5% w/v sodium carboxymethylcellulose. Blood samples were collected at predetermined time intervals from the retro-orbital venous plexus of the rats and centrifuged for 5 min at 10,000 rpm. The plasma was separated and drug analysis was carried out by RP-HPLC method using the software ‘Class-Vp series version 5.03 (Shimadzu)’. The in vivo pharmacokinetic parameters such as peak plasma concentration (Cmax), total area under the plasma concentration-time curve (AUC0–∞), elimination rate constant (KE), and relative bioavailability (%) were calculated by using Kinetica software (version 4.4.1; Thermo Fisher Scientific, Waltham, MA, USA).

[2] = Crystallite size from PXRD data (Scherrer's formula); assay type: physicochemical
Experimental: An XRD study was performed to assess the physico-chemical state of telmisartan in prepared telmisartan-maleic acid cocrystals. The XRD study was performed by X-Ray Diffractometer (X’Pert Pro, Panalytical, Almelo, The Netherlands) using monochromatized Cu Kα radiation (λ = 1.54 Å) at a voltage of 45 kV and a current of 40 mA. Measurements were carried out in the angular scan range from 5° to 50° (2θ) at a scan speed of 1°/min. This study also helps to determine the size of the formed crystallite using Scherrer’s formula. Crystallite size Dp=K λ/Bcosθ, where Dp is average crystallite size (nm), K is Scherrer constant, λ is X-ray wavelength, B is FWHM (Full Width at Half Maximum) of XRD peak, and θ is XRD peak position.

[3] = Equilibrium solubility analysis; assay type: physicochemical; conditions: distilled water, 25 °C, stirred 24 h; mean ± SD, n = 3
Experimental: Improvement in solubility may due to the formation of hydrogen bonds between the imidazole rings of telmisartan and polar carboxylate hydrogens of maleic acid in presence of solvents.
The solubility analysis of telmisartan and prepared telmisartan-maleic acid cocrystals were assessed by placing an excessive amount of sample in 50 mL of distilled water at 25 °C. Then it was stirred for 24 h using a magnetic stirrer to ensure that the solution must reach equilibrium, and then sonicated (Imeco Sonifier, Imeco Ultrasonics, Pune, India) for 15 min. Then the solution was filtered and subjected to spectrophotometric analysis at 296 nm, using a UV-visible spectrophotometer (UV-1800 Shimadzu, Kyoto, Japan).

[4] = In vitro dissolution study (USP apparatus II); assay type: physicochemical; conditions: phosphate buffer pH 7.5, 100 rpm, 37 ± 0.5 °C
Experimental: The dissolution study was performed in a phosphate buffer (pH 7.5) using a USP dissolution rate test apparatus II (LAB INDIA, DS 8000, Thane, India) at 100 rpm and 37 ± 0.5 °C (Figure 7). […] The enhancement in dissolution may be due to the formation of hydrogen bonds between telmisartan and maleic acid in presence of solvents. The computational simulation approach already predicted this finding. Another reason for the enhancement of dissolution may be a reduction in crystal size, solubilization effect of the carrier as well as improved wettability of the drug in presence of solvents.
A USP dissolution rate test apparatus II (LAB INDIA, DS 8000, India) was used to perform the dissolution studies of pure telmisartan and prepared multicomponent solid form (telmisartan cocrystals) in phosphate buffer medium (pH 7.5) at 37 ± 0.5 °C. An accurately weighed amount of sample was placed in a 900 mL dissolution medium and stirred at 100 rpm. At each specific time interval, a 5 mL sample was withdrawn and replaced by an equal volume of fresh pre-warmed phosphate buffer (pH 7.5) to maintain the sink condition throughout the experiment. The samples were filtered through Whatman filter paper (0.45 µm) and analyzed at 296 nm using a UV-visible spectrophotometer (UV-1800 Shimadzu, Japan). The dissolution studies were conducted in triplicate.

k el ([1]; plasma, rat, read-out: KE (elimination rate constant) (converted)): 3e-05 s⁻¹
AUC(0-inf) ([1]; rat plasma): 4180 ± 87.8 ng·h/mL
Cmax ([1]; rat plasma): 945 ± 27.9 ng/mL
Average crystallite size [2]: 893.51 ± 42.82 nm
solubility at 24 h [3]: 5.15 ± 1.16 µg/mL (≈ 10 µM)
Percentage drug dissolved within 120 min [4]: 29.04 ± 2.06%
Structure (SMILES): CCCc1nc2c(C)cc(-c3nc4ccccc4n3C)cc2n1Cc1ccc(-c2ccccc2C(=O)O)cc1 [PD, Telmisartan]
